According to patent US20240366571A1, “MODULATORS OF SK4 POTASSIUM CHANNEL AND USES THEREOF” (Ramot at Tel-Aviv University Ltd., priority 2022, published 2024):

Columns and labels:
[1] = test system: SK4 channel mutants; test: Whole-cell patch-clamp of SK4 channel mutants; assay type: cell-based, human; conditions: 20 μM
Procedure: (§1) Constructs: For CHO cell transfection, the following were cloned: human SK1, rat SK2, human SK3, and rat calmodulin into the pcDNA3 vector, human SK4 into pEGFP-C1 vector, and PIP4,5-kinase into an IRES-dsRed plasmid. The mutations were introduced using the PCR-based QuikChange™ site-directed mutagenesis (Stratagene®) and were verified by full sequencing of the entire plasmid vector.
(§2) Whole-cell patch-clamp recording: Voltage-clamp recordings were performed using the whole-cell configuration of the patch-clamp technique. Signals were amplified using an […] patch-clamp amplifier (Molecular Devices), sampled at 5 kHz and filtered at 2.4 kHz via a four pole Bessel low pass filter. Data were acquired using pClamp™ 10.5 software in conjunction with an Axon™ DigiData® 1440A interface (Molecular Devices). The patch pipettes were pulled from borosilicate glass (Harvard Apparatus) with a resistance of 3-5 megaohms (MΩ). The intracellular pipette solution contained 130 mM KCl, 5 mM EGTA, 10 mM HEPES, pH 7.3 (adjusted with KOH), and CaCl2 calculated for a final concentration of 1 μM free-Ca^2+, by MAXCHELATOR (WEBMAXC STANDARD) software, with sucrose added to adjust osmolarity to 290 mosM. The external solution (310 mosM) contained 140 mM NaCl, 4 mM KCl, 1.8 mM CaCl2, 1.2 mM MgCl2, 11 mM glucose, and 5.5 mM HEPES adjusted with NaOH to pH 7.3. CHO cells were held at −90 millivolt (mV) and SK4 K^+ currents were activated using a voltage ramp protocol from −100 mV to +60 mV for 150 milliseconds. Electrophysiological data analysis was performed using the Clampfit program (pClamp™ 10.5; Molecular Devices).
(§3) To examine ex-vivo the interactions between BA6b9 and the simulated residues seen in FIG. 5B, residues that are in atomic proximity and are expected to interact with BA6b9 were mutated. Such mutated residues were, for example, R191 and H192 of linker S4-S5, M72 and M76 of the CaM linker as well as L19, E22, Y179, S181, A184, Q187 and R189, which are more distant from BA6b9.

[2] = target: T1, SK4 channel mutants (Homo sapiens, UniProt O15554, H192A); test: Whole-cell patch-clamp of SK4 channel mutants; assay type: cell-based; conditions: read-out: inhibition of SK4 mutant H192A current
T1 construct: expressed in transfected cells; host or cells: CHO cells
Procedure: as §1, §2, §3

[3] = target: T2, SK4 channel mutants (Homo sapiens, UniProt O15554, L19W); test: Whole-cell patch-clamp of SK4 channel mutants; assay type: cell-based; conditions: read-out: inhibition of SK4 mutant L19W current
T2 construct: expressed in transfected cells; host or cells: CHO cells
Procedure: as §1, §2, §3

[4] = target: T3, SK4 channel mutants (Homo sapiens, UniProt O15554, E22A); test: Whole-cell patch-clamp of SK4 channel mutants; assay type: cell-based; conditions: read-out: inhibition of SK4 mutant E22A current
T3 construct: expressed in transfected cells; host or cells: CHO cells
Procedure: as §1, §2, §3

[5] = target: T4, SK4 channel mutants (Homo sapiens, UniProt O15554, R352Q); test: Whole-cell patch-clamp of SK4 channel mutants; assay type: cell-based; conditions: read-out: inhibition of SK4 mutant R352Q current
T4 construct: expressed in transfected cells; host or cells: CHO cells
Procedure: as §1, §2, §3

[6] = target: T5, SK4 channel mutants (Homo sapiens, UniProt O15554, R191A); test: Whole-cell patch-clamp of SK4 channel mutants; assay type: cell-based; conditions: read-out: inhibition of SK4 mutant R191A current
T5 construct: expressed in transfected cells; host or cells: CHO cells
Procedure: as §1, §2, §3

[7] = target: T6, WT SK4 channels (Homo sapiens, UniProt O15554); test: Inside-out macro-patch recording of WT SK4 channels in transfected CHO cells; assay type: cell-based
T6 construct: expressed in transfected cells; host or cells: CHO cells
Procedure: Inside-out macro-patch recording: To measure the Ca^2+ concentration dependence for SK4 channel activation, CHO cells were co-transfected with plasmids encoding WT SK4 (1 μg) and WT CaM (1 μg) using the Lipofectamine reagent at a ratio of 1:2. The cells were transfected 48 hours prior to recordings. The patch pipettes were pulled and fire-polished with a MF-900 micro-forge (Narashige) to reach an internal diameter of […]. The resistance of the patch electrodes ranged from 2-3 MΩ. The pipette solution contained 135 mM KCl, 1 mM MgSO4, 0.91 mM CaCl2, and 10 mM HEPES at pH 7.3. The bath solution contained 135 mM KCl, 5 mM EGTA, and 10 mM HEPES at pH 7.3. EGTA was used to titer the different Ca^2+ concentration solutions, calculated using the software by C. Patton of Stanford University (http://maxchelator(dot)stanford(dot)edu/). Currents were recorded by 10 repetitive 1 second duration voltage ramps from −100 mV to +100 mV from a holding potential of 0 mV. The current amplitudes in response to increasing Ca^2+ concentrations were normalized to those obtained at a saturating Ca^2+ concentration (3 μM). Furthermore, to determine the Ca^2+ concentration dependence for activation in the presence of a tested compound, such as the exemplary compound BA6b9 (10 μM), the current amplitudes were normalized to those obtained at large maximal Ca^2+ concentration of 10 μM. For PIP2-dependent activation, PIP2 affinity to the SK4 channel was also examined in the inside-out configuration. The dose-response curve for PIP2 was measured with increasing concentrations of diC8-PIP2 in the presence of 1 μM Ca^2+. The diC8-PIP2 effect on the channel current was measured after complete depletion of the native PIP2 using sonicated poly-L-lysine (PLL) 50 μg/ml and a subsequent 2-minute washout. […] Apparent EC50 values for Ca^2+ or diC8-PIP2 were determined by fitting the data points to a standard dose-response curve Y=100/(1+10^(log EC(50)−X)*HillSlope).
The calcium dependence of the human SK4 K^+ channel in transfected CHO cells was characterized using inside-out macro-patches. The expressed currents were recorded in response to voltage ramps (−100 millivolt (mV) to +100 mV for 1 seconds) and by increasing the free-Ca^2+ concentrations applied to the internal face of the membrane. […]
To examine whether PIP2 is involved in the modulation of the SK4 channel, channel trafficking to the plasma membrane was increased by co-transfecting CHO cells with plasmid DNAs encoding for the channel and for wild type (WT) CaM. The resulting currents were recorded from inside-out macro-patches, where the intracellular solution contained a saturating concentration of 1 μM free-Ca^2+, as shown in FIG. 1B (see, black plot).

inhibition at 20 µM [2]: 16%
inhibition at 20 µM [3]: 46%
inhibition at 20 µM [4]: 56%
inhibition at 20 µM [5]: 31%
inhibition at 20 µM [6]: 30%
lowering of the sensitivity of SK4 channels to Ca2+ ([7]; 10 μM compound): about 7 fold
inhibition at 10 µM ([7]; CHO, 10 μM, 1 μM free-Ca2+, read-out: inhibition of SK4 currents in inside-out macro-patches): 66%
Compound: CCCCCCCn1c(=O)oc2ccccc21 [BA6b9, 3-heptylbenzo[d]oxazol-2(3H)-one]
sensitivity of mutants R352Q, R191A, H192A to inhibition compared to WT SK4 [1]: significantly less sensitive
